Consider 15 molecules from patent US20140186329A1, “POLYPHENOL ANALOGS TO TREAT ISCHEMIA” (priority 2011, published 2014).

pEC50: −log10 of the molar value. Where two headings read alike, the source gives them in different places.

Experiment [1] can be described thus: TEAC, ABTS decolorization assay. The note with it: relative to Trolox. Here is the method: TEAC values for the flavonoids were determined as described (Maher, P. et al., Free Radical Research. (2006), supra). Briefly, 250 μl of 2,2′-azinobis(3-ethylbenzothiazoline 6-sulfonate) (ABTS) treated overnight with potassium persulfate and diluted to an OD of ˜0.7 at 734 nm was added to 2.5 μl of a derivative solution in ethanol. The change in absorbance due to the reduction of the ABTS radical cation was measured at 734 nm for 4 min. To calculate the TEAC, the gradient of the plot of the percentage inhibition of absorbance vs. concentration for the derivative in question was divided by the gradient of the plot for Trolox.
(§1) Cell viability was determined after 24 hr by the MTT assay. The ability to maintain GSH (GSH) was determined by treating HT22 cells with different doses of each derivative (1-10 μM) in the presence of 5 mM glutamate. After 24 hr cell extracts were prepared and analyzed for total GSH. Fisetin (10 μM) was used as a positive control. The ability to induce PC12 cell differentiation (PC 12 diff' n) was determined by treating PC12 cells in N2 medium with different doses of each derivative (1-10 μM) for 24 hr. Differentiation was assessed by visual inspection with Fisetin (10 μM) as a positive control. Anti-inflammatory activity (microglia) was assessed in N9 microglial cells treated with bacterial lipopolysaccharide alone or in the presence different doses of each derivative (1-10 μM) for 24 hr. Fisetin was used as a positive control. TEAC values, a measure of direct antioxidant activity, were determined using the ABTS decolorization assay.

Experiment [2] concerns HT22 cells. The experiment in a line: In vitro ischemia assay (HT22 cell IAA assay, MTT). It counts as cell-based, mouse. The conditions noted are these: for Emax: HT-22, HT22 Cell IAA assay, read-out: Max Protection; for fold improvement of neuroprotective activity/potency relative to Fisetin: in vitro ischemia, HT22/IAA. Here is the method:
Cell viability was determined by a modified version of 3-(4,5-dimethylthiazol-2-yl)-2,5-diphenyl tetrazolium bromide (MTT) assay based on the standard procedure (Maher, et al., Brain Research. (2007), supra). Cells were seeded onto 96-well microtiter plates at a density of 5×10^3 cells per well. For the in vitro ischemia assay, the next day, the medium was replaced with DMEM supplemented with 7.5% DFCS and the cells were treated with 20 μM iodoacetic acid (IAA) alone or in the presence of the different derivatives. After 2 hr the medium in each well was aspirated and replaced with fresh medium without IAA but containing the derivatives. 20 hr later, the medium in each well was aspirated and replaced with fresh medium containing 2.5 μg/ml MTT. After 4 hr of incubation at 37° C., the cells were solubilized with 100 μl of a solution containing 50% dimethylformamide and 20% SDS (pH 4.7). The absorbance at 570 nm was measured on the following day with a microplate reader (Molecular Devices). Results were confirmed by visual inspection of the wells. Controls included compound alone to test for toxicity and compound with no cells to test for interference with the assay chemistry.
For a primary screen, an in vitro ischemia model in combination with the HT22 nerve cell line (Maher, et al., Brain Research. (2007) 1173, 117-125) was chosen. […] To induce ischemia in the HT22 cells we used iodoacetic acid (IAA), a well-known, irreversible inhibitor of the glycolytic enzyme glyceraldehyde 3-phosphate dehydrogenase (G3PDH) (Winkler, et al., Exp. Eye Res. (2003) 76, 715-723). IAA has been used in a number of other studies to induce ischemia in nerve cells (Reshef, et al., Neurosci. Lett. (1997) 238, 37-40; Sperling, et al., Neursci. Lett. (2003) 351, 137-140; Rego, et al., Neurochem. Res. (1999) 24, 351-358; Sigalov, et al., J. Mol. Neurosci. (2000) 15, 147-154; and Reiner, et al., Neurosci. Lett. (1990) 119, 175-178), including several recent screens for neuroprotective molecules (Biraboneye, et al., J. Med. Chem. (2009) 52 (14), 4358-4369; Biraboneye, et al., Chem. Med. Chem. (2010) 5 (1), 79-85). The changes following IAA treatment of neural cells are very similar to those seen in animal models of ischemic stroke (Lipton, et al., Physiol. Rev. (1999) 79, 1431-1568) and include alterations in membrane potential (Reiner, et al., Neurosci. Lett. (1990) 119, 175-178), breakdown of phospholipids (Taylor, et al., J. Pharmacol. Exp. Ther. (1996) 276, 1224-1231), loss of ATP (Winkler, et al., Exp. Eye Res. (2003) 76, 715-723; Sperling, et al., Neursci. Lett. (2003) 351, 137-140) and an increase in reactive oxygen species (ROS) (Taylor, et al., J. Pharmacol. Exp. Ther. (1996), supra; and Sperling, et al., Neursci. Lett. (2003) 351, 137-140).
as §1
For rapid screening of chemical libraries, a mouse HT22 hippocampal cell death assay induced by addition of the compound iodoacetic acid (IAA) was used. IAA is a well-known, irreversible inhibitor of the glycolytic enzyme glyceraldehyde 3-phosphate dehydrogenase (G3PDH). […]

Experiment [3] deals with PC12 cells. In words: PC12 cell differentiation (neurite outgrowth). Type of experiment: cell-based. The note with it: N2 medium, derivative 1-10 μM, 24 hr, visual inspection. Here is the method: PC 12 cells in N2 medium were treated with the derivatives (1-10 μM) or Fisetin (10 μM) as a positive control for 24 hr at which time the cells were scored for the presence of neurites. PC12 cells produce neurites much more rapidly when treated in N2 medium than when treated in regular growth medium. For each treatment, 100 cells in each of three separate fields were counted. Cells were scored positive if one or more neurites>1 cell body diameter in length were observed.
(§2) Three secondary screens allowed assessment of three key activities of Fisetin that are highly relevant to stroke, as well as other neurological disorders: maintenance of glutathione (GSH), the major endogenous cellular antioxidant, inhibition of LPS-induced microglial activation, an indicator of anti-inflammatory activity and PC 12 cell differentiation, a measure of neurotrophic activity. All of these activities are relevant to the nerve cell loss seen in stroke (Gelderblom, et al., Stroke. 2009, 40 (5), 1849-1857; Pandya, et al., Cent. Nerv. Syst. Agents. Med. Chem. (2011) April 27; Lewerenz, et al., J. Neurochem. (2010) 113 (2), 502-504). […] To assess GSH maintenance, total intracellular GSH levels after a 24 hr treatment with the compound both in the absence and presence of glutamate, an inducer of GSH loss and oxidative stress (Tan, et al., Curr. Top. Med. Chem. (2001) 1, 497-506; Maher, et al., Free Radical Research. (2006) 40 (10), 1105-1111) was measured. Inhibition of LPS-induced microglial activation was determined by treating N9 mouse microglial cells with LPS alone and in the presence of the compounds and assaying NO release into the medium 24 hr later (Zheng, et al., Int. Immunopharmacol. (2008) 8, (3), 484-494). PC12 cell differentiation was determined by treating PC12 cells with the compounds and looking at neurite outgrowth after 24 hr. In all cases, Fisetin was used as a positive control (Sagara, et al., J. Neurochem. (2004) 90, 1144-1155).
as §1

Experiment [4] has as its system HT22 cells. In words: Maintenance of total GSH in the presence of glutamate. It counts as cell-based, mouse. The note with it: derivative 1-10 μM, 5 mM glutamate, 24 hr. Here is the method: Total intracellular glutathione was determined by a chemical assay as described (Maher, P. et al., Free Radical Research. (2006) 40 (10), 1105-1111).
as §2, §1

Where [5] appears, read: HT22 cells, 20 μM IAA for 2 hr, viability after 24 hr by MTT.
The mark [6] stands for this setting: Mus musculus, HT-22, HT22 cells, 20 μM IAA for 2 hr, viability after 24 hr by MTT, read-out: EC50 in vitro ischemia.
Setting [7] is: Mus musculus, HT-22, HT22 cells, 20 μM IAA, read-out: HT22 Cell IAA assay EC50.
The mark [8] stands for this setting: HT22 cells, 20 μM IAA, read-out: HT22 Cell IAA assay EC50.

`COc1cc(-c2ccc(N3CCCC3)cc2)nc2ccccc12` [CMS-110, 4-methoxy-2-(4-(pyrrolidin-1-yl)phenyl)quinoline] came in with a TEAC in experiment [1] of 0.27. In experiment [2] (setting [5]), the “EC50 in vitro ischemia (μM)” value is listed as “no”. Also, in experiment [3], the “PC12 diff'n (ability to induce PC12 cell differentiation)” value is reported as “no”. Besides, the “GSH (ability to maintain GSH)” value in experiment [4] was “no”.
`O=c1c(O)c(-c2ccc(N3CCCC3)cc2)oc2c1ccc1ccccc12` [CMS-114, 3-hydroxy-2-(4-(pyrrolidin-1-yl)phenyl)-4H-benzo[h]chromen-4-one] yielded a TEAC in experiment [1] of 1.44. Further, the pEC50 in experiment [2] (setting [6]) and in experiment [2] (setting [7]) was 7.15 throughout. Also, the Emax in experiment [2] (Mus musculus) was 74%. For the same molecule, the “PC12 diff'n (ability to induce PC12 cell differentiation)” value in experiment [3] is “yes”. Also, the “GSH (ability to maintain GSH)” value in experiment [4] is recorded as “no”.
Regarding `O=c1cc(-c2ccc(O)c(O)c2)oc2ccccc12` [PM-001], the pEC50 in experiment [2] (setting [7]) was 6.30. Also, in experiment [2], the “fold improvement of neuroprotective activity/potency relative to Fisetin” value amounted to 6 fold.
Turning to `CCOc1ccc(-c2cc(OC)c3ccccc3n2)cc1OCC` [CMS-004, 4-methoxy-2-(3,4-diethoxyphenyl) quinoline], in experiment [1], the TEAC was determined as 0.12. In addition, the “EC50 in vitro ischemia (μM)” value in experiment [2] (setting [5]) is on record as “no”. Also, in experiment [3], the “PC12 diff'n (ability to induce PC12 cell differentiation)” value is reported as “no”. The “GSH (ability to maintain GSH)” value in experiment [4] is recorded as “no”.
The molecule `COc1cc(-c2oc3c(ccc4ccccc43)c(=O)c2O)ccc1OCc1ccccc1` [CMS-065, 2-(4-(benzyloxy)-3-methoxyphenyl)-3-hydroxy-4H-benzo[h]chromen-4-one] registered a TEAC in experiment [1] of 0. Besides, the results for the pEC50 in experiment [2] (setting [6]) and in experiment [2] (setting [7]) were 7.10 and 7.09, respectively. In addition, the “PC12 diff'n (ability to induce PC12 cell differentiation)” value in experiment [3] is given as “yes”. In experiment [4], the “GSH (ability to maintain GSH)” value was “no”.
For `COc1cc(-c2cc(=O)c3cc(C)c(C)cc3o2)ccc1OCc1ccccc1` [CMS-058, 2-(4-(benzyloxy)-3-methoxyphenyl)-6,7-dimethyl-4H-chromen-4-one], in experiment [1], the TEAC worked out at 0.09. In addition, in experiment [2] (setting [6]), the pEC50 was 6.30. In experiment [3], the “PC12 diff'n (ability to induce PC12 cell differentiation)” value was “no”. The “GSH (ability to maintain GSH)” value in experiment [4] is “no”.
`O=c1cc(-c2ccc(O)c(O)c2)oc2c1ccc1ccccc12` [CMS-02P, reference compound] showed a TEAC in experiment [1] of 0.18. Also, the figures for the pEC50 in experiment [2] (setting [6]) and in experiment [2] (setting [7]) were 7.10 and at least 7.00, respectively. The Emax in experiment [2] (Mus musculus) is 86%. The “fold improvement of neuroprotective activity/potency relative to Fisetin” value in experiment [2] is about 40 fold. Also, the “PC12 diff'n (ability to induce PC12 cell differentiation)” value in experiment [3] is “yes”. The “GSH (ability to maintain GSH)” value in experiment [4] is given as “no”.
Take `CCOc1ccc(/C=C/C(=O)c2cc(C)c(C)cc2O)cc1OCC` [CMS-013, (E)-3-(3,4-diethoxyphenyl)-1-(2-hydroxy-4,5-dimethylphenyl)prop-2-en-1-one]: the TEAC in experiment [1] was 0.09. In addition, in experiment [2] (setting [5]), the “EC50 in vitro ischemia (μM)” value is recorded as “no”. For the same molecule, the “PC12 diff'n (ability to induce PC12 cell differentiation)” value in experiment [3] was “no”. Besides, the “GSH (ability to maintain GSH)” value in experiment [4] is reported as “no”.
Consider `COc1cc(-c2oc3cc(C)c(C)cc3c(=O)c2O)ccc1CCl` [CMS-078, 2-(4-(chloromethyl)-3-methoxyphenyl)-3-hydroxy-6,7-dimethyl-4H-chromen-4-one], for which the pEC50 in experiment [2] (setting [7]) is 6.87.
For the molecule `O=c1cc(-c2ccc(O)c(O)c2)oc2ccc3ccccc3c12` [PM-003], in experiment [2] (setting [7]), the pEC50 was 7.10. Further, the “fold improvement of neuroprotective activity/potency relative to Fisetin” value in experiment [2] is about 40 fold.
Turning to `O=C1/C(=C/c2ccc(O)c(O)c2)Oc2cc(O)ccc21` [PM-014], in experiment [2] (setting [7]), the pEC50 is 7.31.
For the molecule `CC(C)c1ccc(O)c(C(=O)/C=C/c2ccc(O)c(O)c2)c1` [CMS-129, (E)-3-(3,4-dihydroxyphenyl)-1-(2-hydroxy-5-isopropylphenyl)prop-2-en-1-one], the pEC50 in experiment [2] (setting [8]) was 7.10; in experiment [2] (setting [7]) it was at least 7.00. In experiment [2] (Mus musculus), the Emax came to 81%.
On to `COc1cc(/C=C/C(=O)c2ccc3ccccc3c2O)ccc1N1CCCC1` [CMS-137, (E)-1-(1-hydroxynaphthalen-2-yl)-3-(3-methoxy-4-(pyrrolidin-1-yl)phenyl)prop-2-en-1-one], for which the pEC50 in experiment [2] (setting [7]) was 7.07. Moreover, the Emax in experiment [2] (Mus musculus) was 75%.
On to `O=C(/C=C/c1ccc(N2CCCC2)c(O)c1)c1ccc2ccccc2c1O` [CMS-138, (E)-3-(3-hydroxy-4-(pyrrolidin-1-yl)phenyl)-1-(1-hydroxynaphthalen-2-yl)prop-2-en-1-one], for which, in experiment [2] (setting [7]), the pEC50 is 7.15. The Emax in experiment [2] (Mus musculus) was determined as 72%.
`COc1cc(-c2oc3c(ccc4ccccc43)c(=O)c2O)ccc1N1CCCC1` [CMS-139, 3-hydroxy-2-(3-methoxy-4-(pyrrolidin-1-yl)phenyl)-4H-benzo[h]chromen-4-one]: the pEC50 in experiment [2] (setting [8]) was 7.30; in experiment [2] (setting [7]), at least 7.00. Besides, the Emax in experiment [2] (Mus musculus) was determined as 92%.
